Experimental data from BindingDB's records for doi:10.1021/jm00095a011 (Centre De Recherche De Vitry-Alfortville, 1992).

Test: Capability to inhibit the binding of [3H]LTB4 to guinea pig spleen Leukotriene B4 receptor at the concentration of 10e-5 M

Row | SMILES | IC50
1 | O=C(O)CCCCc1sccc1CCCc1ccccc1 | 3500 nM
2 | O=C(O)CCCCCCc1csc(CCc2ccccc2)c1 | 10000 nM
3 | O=C(O)CCCCCCc1csc(Cc2ccccc2)c1 | 10000 nM
4 | O=C(O)CCCCCC(O)c1sccc1CCCc1ccccc1 (stereo not drawn) | 6000 nM
5 | Cc1cc(CCCc2ccccc2)c(SCCCCCC(=O)O)s1 | 3000 nM
6 | O=C(O)CCCCCCc1csc(CCCc2ccc(Cl)cc2)c1 | 1000 nM
7 | CC(C)(CCCCCc1cc(-c2ccccc2)sc1CCCc1ccccc1)C(=O)O | 1200 nM
8 | O=C(O)CCCCCCc1csc(CCCc2ccc(O)cc2)c1 | 5000 nM

Further lines, results first:

Row | IC50 | SMILES
9 | 1000 nM | O=C(O)CCCCCCc1ccsc1CCCc1ccc(Cl)cc1
10 | 1000 nM | O=C(O)CCCCCCc1sc(-c2ccccc2)cc1CCCc1ccccc1
11 | 1000 nM | O=C(O)CCCCCCc1sccc1CCCc1ccccc1
12 | 800 nM | CC(C)(CCCCCc1sc(-c2ccccc2)cc1CCCc1ccccc1)C(=O)O
13 | 700 nM | Cc1cc(CCCCCCC(=O)O)c(CCCc2ccccc2)s1
14 | 300 nM | Cc1cc(CCCCCC(C)C(=O)O)c(CCCc2ccccc2)s1 (stereo not drawn)
15 | 300 nM | Cc1cc(CCCc2ccccc2)c(CCCCCC(C)C(=O)O)s1 (stereo not drawn)
16 | 110 nM | CC(CCCCCc1sccc1CCCc1ccccc1)C(=O)O (stereo not drawn)

Test: Capability of compound to inhibit the binding of [3H]LTB4 to guinea pig spleen Leukotriene B4 receptor at the concentration of 10e-5 M

Row | IC50 | SMILES
17 | 200 nM | Cc1cc(CCCc2ccccc2)c(CCCCCC(C)(C)C(=O)O)s1

Test: Capability of compound to inhibit the binding of [3H]LTB4 to guinea pig spleen Leukotriene B4 receptors at the concentration of 10e-5 M

Row | IC50 | SMILES
18 | 1000 nM | O=C(O)CCCCCCc1ccsc1CCCc1ccccc1
